Reference: US10189785B2, “Heterocyclic compound” (TAKEDA PHARMACEUTICAL COMPANY LIMITED, priority 2015, dated 2019)

How the values were obtained:
[1] = test system: lung adenocarcinoma cell line HCC4006; assay: HCC4006 cell growth inhibition test (Test Example 2); assay type: cell-based; details: HCC4006 cells, culture for 5 days, CellTiter-Glo; for inhibition at 1 µM: read-out: Rate of inhibition (%) at 1 μM
Method: A lung adenocarcinoma cell line HCC4006 (ATCC) was cultured using an RPMI-1640 medium (Wako Pure Chemical Industries, Ltd.) containing 10% fetal bovine serum and penicillin/streptomycin. 250 cells per well were inoculated into 40 μL of a medium in a 384-well culture plate. On the next day, 10 μL of each test compound was added to the cells. After culture for 5 days, the medium was discarded, and 30 μL of CellTiter-Glo Luminescent Cell Viability Assay solution (Promega Corp., Fitchburg, Wis., U.S.) was added to each well. Light emission signals were measured using EnVision (PerkinElmer, Inc., Waltham, Mass., U.S.).
The rate of inhibition (%) by the test compound was calculated according to the following expression: Rate of inhibition (%)=(1−(Count of the test compound−Blank)/(Control−Blank))×100
In the above expression, a count under compound non-addition conditions was indicated as a control, and a count under cell-free conditions was indicated as a blank.

[2] = biological target: T1, SPT (SPT2-expressing membrane fraction: human SPT1, human SPT2 and human ssSPTa) (Homo sapiens, UniProt O15269+O15270); assay: SPT enzyme inhibition test (Test Example 1); assay type: biochemical; details: for inhibition at 1 µM: read-out: Rate of inhibition (%) at 1 μM
T1 construct: Full-length human SPT1, human SPT2 and human ssSPTa used; made in house; host or cells: FreeStyle 293 cells (pcDNA3.1 vectors, cotransfection); crude membrane fraction used
T1 sequence (O15269 1-473): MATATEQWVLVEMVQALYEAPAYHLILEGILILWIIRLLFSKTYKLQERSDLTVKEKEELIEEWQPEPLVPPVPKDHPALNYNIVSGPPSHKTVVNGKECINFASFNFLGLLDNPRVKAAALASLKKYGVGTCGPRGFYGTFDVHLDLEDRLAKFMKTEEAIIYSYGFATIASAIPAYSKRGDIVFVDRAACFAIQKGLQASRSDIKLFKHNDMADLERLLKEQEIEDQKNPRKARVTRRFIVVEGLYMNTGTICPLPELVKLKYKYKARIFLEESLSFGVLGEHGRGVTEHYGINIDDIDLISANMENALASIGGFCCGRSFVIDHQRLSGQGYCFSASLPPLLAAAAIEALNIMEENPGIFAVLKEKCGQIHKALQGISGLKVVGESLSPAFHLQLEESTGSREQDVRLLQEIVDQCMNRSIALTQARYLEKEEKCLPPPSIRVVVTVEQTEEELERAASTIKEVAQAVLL
T1 sequence (O15270 1-562): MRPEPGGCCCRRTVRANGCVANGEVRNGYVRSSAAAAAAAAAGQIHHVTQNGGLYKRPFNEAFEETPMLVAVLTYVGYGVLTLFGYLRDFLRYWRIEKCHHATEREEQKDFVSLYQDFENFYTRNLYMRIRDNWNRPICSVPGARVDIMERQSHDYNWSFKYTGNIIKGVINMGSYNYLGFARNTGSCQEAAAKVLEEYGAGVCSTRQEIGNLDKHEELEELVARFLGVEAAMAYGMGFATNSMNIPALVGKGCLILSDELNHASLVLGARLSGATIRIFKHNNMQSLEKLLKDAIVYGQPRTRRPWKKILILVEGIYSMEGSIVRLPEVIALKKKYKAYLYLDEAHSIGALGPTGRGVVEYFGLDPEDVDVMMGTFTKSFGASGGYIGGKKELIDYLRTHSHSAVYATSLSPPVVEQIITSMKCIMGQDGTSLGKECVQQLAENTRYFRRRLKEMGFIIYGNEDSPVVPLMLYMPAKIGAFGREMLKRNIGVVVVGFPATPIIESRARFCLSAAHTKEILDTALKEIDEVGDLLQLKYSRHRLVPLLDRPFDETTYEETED
T1 sequence (Q969W0 1-71 partner): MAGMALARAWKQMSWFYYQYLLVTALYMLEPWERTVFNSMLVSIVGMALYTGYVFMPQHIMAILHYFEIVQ
Method: After culture for 3 days, the cells were recovered and frozen at −80° C. to obtain expressing cells. The frozen cells were suspended in a 50 mM Hepes buffer (pH 7.5) containing 250 mM sucrose, 5 mM ethylenediaminetetraacetic acid (EDTA), 5 mM dithiothreitol (DTT) and Complete, EDTA-free (Roche Applied Science, Penzberg, Upper Bavaria, Germany). The cells were disrupted (on ice, 20,000 rpm, 20 sec×2) using POLYTORON (Central Scientific Commerce, Inc.). After centrifugation at 2000 rpm (850×g) for 10 minutes, the supernatant was recovered. Subsequently, the supernatant was centrifuged at 40,000 rpm (186,010×g) for 60 minutes, and the supernatant was discarded. The pellets were suspended in a 50 mM Hepes buffer (pH 7.5) containing 5 mM EDTA, 5 mM DTT and Complete, EDTA-free, passed through a 40-μm cell strainer and stored at −80° C. The resultant was used as a SPT2-expressing membrane fraction. The protein concentration was determined using CBB Protein Assay with bovine serum albumin used as standards.
5 μL of each test compound was mixed with 10 μL of the 100 μg/mL SPT2-expressing membrane fraction using an assay buffer (100 mM Hepes (pH 8.0) containing 2.5 mM EDTA, 5 mM DTT and 0.01% fatty acid-free bovine serum albumin), and the mixture was left standing at room temperature for 60 minutes. Subsequently, 5 μL of a substrate solution containing 2 mM L-serine and 20 μM palmitoyl CoA was added thereto, and an enzyme reaction was carried out in a 384-well plate using 20 μL in total of the reaction system. After reaction at room temperature for 15 minutes, the reaction was terminated by the addition of 20 μL of a 2% aqueous formic acid solution. Subsequently, 40 μL of acetonitrile containing 600 nM C17-sphinganine (Avanti Polar Lipids, Inc., Alabaster, Ala., U.S.) was added thereto as an internal standard. The reaction sample was subjected to on-line solid-layer extraction using RapidFire 300 (Agilent Technologies Inc., Santa Clara, Calif., U.S.). […] Mass chromatograms were obtained using Analyst software (version 1.5.0, AB SCIEX). Their mass chromatogram areas were respectively calculated, and the rate of inhibition (%) by the test compound was calculated using an area ratio (the value of the reaction product was divided by the value of the internal standard).

[3] = Homo sapiens, 120 h, 1 μM test compound

| Compound | inhibition at 1 µM [2] [%] | Rate of inhibition (%) at 1 μM ([2]; 1 μM test compound, SPT2-expressing membrane fraction) [%] | inhibition at 1 µM [1, 3] [%] | Rate of inhibition (%) at 1 μM ([1]; 1 μM test compound) [%] | inhibition at 0.3 µM ([1]; Homo sapiens, 120 h, 0.3 μM test compound, read-out: Rate of inhibition at 0.3 μM) [%] |
| --- | --- | --- | --- | --- | --- |
| COc1ccc(C(=O)N2CC[C@H](NC(=O)c3ccccc3Cl)[C@H](c3ccc(F)cc3)C2)cc1OC (relative stereo) [Example 114B, 2-chloro-N-(cis-1-(3,4-dimethoxybenzoyl)-3-(4-fluorophenyl)piperidin-4-yl)benzamide] | 99 |  | 56 |  |  |
| COc1ccc(C(=O)N2CCC(NC(=O)c3ccccc3Cl)c3cn(C)nc32)cc1OC (centres unmarked) [Example 3A, 2-Chloro-N-(7-(3,4-dimethoxybenzoyl)-2-methyl-4,5,6,7-tetrahydro-2H-pyrazolo[3,4-b]pyridin-4-yl)benzamide] | 98 |  | 41 |  |  |
| Cc1cc(NC(=O)C2CC2)sc1C(=O)N1CC[C@@H](NC(=O)c2ccccc2OC(F)(F)F)[C@@H](c2ccccc2)C1 [Example 35B, N-((3S,4R)-1-((5-((cyclopropylcarbonyl)amino)-3-methyl-2-thienyl)carbonyl)-3-phenylpiperidin-4-yl)-2-(trifluoromethoxy)benzamide] | 101 |  | 40 |  |  |
| COc1ccc(C(=O)N2CC[C@@H](NC(=O)c3ncccc3C(F)(F)F)[C@@H](c3ccccc3)C2)nc1OC [Example 44B, N-((3S,4R)-1-((5,6-dimethoxypyridin-2-yl)carbonyl)-3-phenylpiperidin-4-yl)-3-(trifluoromethyl)pyridine-2-carboxamide] | 98 |  | 47 |  |  |
| Cc1cc(C(=O)N[C@@H]2CCN(C(=O)c3cc(Cl)c4nccnc4c3)C[C@@H]2c2ccc(F)cc2)n(C)n1 [Example 58B, N-((3S,4R)-1-((8-chloroquinoxalin-6-yl)carbonyl)-3-(4-fluorophenyl)piperidin-4-yl)-1,3-dimethyl-1H-pyrazole-5-carboxamide] | 101 |  | 49 |  |  |
| Cc1nn(C)c(Cl)c1C(=O)N[C@@H]1CCN(C(=O)c2cc(Cl)c3nccnc3c2)C[C@@H]1c1ccc(F)cc1 [Example 59B, 5-Chloro-N-((3S,4R)-1-((8-chloroquinoxalin-6-yl)carbonyl)-3-(4-fluorophenyl)piperidin-4-yl)-1,3-dimethyl-1H-pyrazole-4-carboxamide] | 101 |  |  |  | 53 |
| COc1cc(C(=O)N2CC[C@@H](NC(=O)c3ncccc3C(F)(F)F)[C@@H](c3ccccc3)C2)cnc1OC [Example 64B, N-((3S,4R)-1-((5,6-dimethoxypyridin-3-yl)carbonyl)-3-phenylpiperidin-4-yl)-3-(trifluoromethyl)pyridine-2-carboxamide] | 100 |  | 49 |  |  |
| COc1cc(C(=O)N2CC[C@@H](NC(=O)c3ccccc3OC(F)(F)F)[C@@H](c3ccccc3)C2)cnc1OC [Example 70B, N-((3S,4R)-1-((5,6-dimethoxypyridin-3-yl)carbonyl)-3-phenylpiperidin-4-yl)-2-(trifluoromethoxy)benzamide] | 100 |  | 56 |  |  |
| COc1ccc(C(=O)N2CC[C@H](NC(=O)c3ccccc3Cl)c3c2cnn3C(C)C)cc1OC [Example 74A, 2-Chloro-N-((7S)-4-(3,4-dimethoxybenzoyl)-1-isopropyl-4,5,6,7-tetrahydro-1H-pyrazolo[4,3-b]pyridin-7-yl)benzamide] |  |  | 51 |  |  |
| COc1cc(C(=O)N2CCC(NC(=O)c3ccccc3OC(F)(F)F)c3c2cnn3C(C)C)cnc1OC (centres unmarked) [Example 132A, N-(4-((5,6-Dimethoxypyridin-3-yl)carbonyl)-1-isopropyl-4,5,6,7-tetrahydro-1H-pyrazolo[4,3-b]pyridin-7-yl)-2-(trifluoromethoxy)benzamide] |  |  | 52 |  |  |
| COc1ccc(C(=O)N2CCC(NC(=O)c3ccccc3Cl)c3ccc(Cl)cc32)cc1OC (centres unmarked) [Example 201A, 2-Chloro-N-(7-chloro-1-(3,4-dimethoxybenzoyl)-1,2,3,4-tetrahydroquinolin-4-yl)benzamide] |  |  | 40 |  |  |

Now from value to molecule, other results behind:

| inhibition at 1 µM [2] [%] | Rate of inhibition (%) at 1 μM ([2]; 1 μM test compound, SPT2-expressing membrane fraction) [%] | Compound | inhibition at 1 µM [1, 3] [%] | Rate of inhibition (%) at 1 μM ([1]; 1 μM test compound) [%] | inhibition at 0.3 µM ([1]; Homo sapiens, 120 h, 0.3 μM test compound, read-out: Rate of inhibition at 0.3 μM) [%] |
| --- | --- | --- | --- | --- | --- |
| 101 |  | Cc1cc(C(=O)N[C@@H]2CCN(C(=O)c3cc(Cl)c4nccnc4c3)C[C@@H]2c2ccccc2)n(C)n1 [Example 23B, N-((3S,4R)-1-((8-Chloroquinoxalin-6-yl)carbonyl)-3-phenylpiperidin-4-yl)-1,3-dimethyl-1H-pyrazole-5-carboxamide] | 53 |  |  |
|  | 100 | CN(C)CCOc1ccc(C(=O)N[C@@H]2CCN(C(=O)c3cc(Cl)c4nccnc4c3)C[C@@H]2c2ccccc2)cn1 [Example 25B, N-((3S,4R)-1-((8-chloroquinoxalin-6-yl)carbonyl)-3-phenylpiperidin-4-yl)-6-(2-(dimethylamino)ethoxy) nicotinamide] |  | 53 |  |
| 102 |  | O=C(N[C@@H]1CCN(C(=O)c2cc(Cl)c3nccnc3c2)C[C@@H]1c1ccccc1)c1ncccc1OC(F)F [Example 31B, N-((3S,4R)-1-((8-Chloroquinoxalin-6-yl)carbonyl)-3-phenylpiperidin-4-yl)-3-(difluoromethoxy)pyridine-2-carboxamide] | 57 |  |  |
| 101 |  | CN(C)CCOc1cc(C(F)(F)F)c(C(=O)N[C@@H]2CCN(C(=O)c3cc(Cl)c4nccnc4c3)C[C@@H]2c2ccccc2)cn1 [Example 38B, N-((3S,4R)-1-((8-chloroquinoxalin-6-yl)carbonyl)-3-phenylpiperidin-4-yl)-6-(2-(dimethylamino)ethoxy)-4-(trifluoromethyl)nicotinamide] | 46 |  |  |
| 96 |  | O=C(N[C@@H]1CCN(C(=O)c2ccc3nccnc3c2)C[C@@H]1c1ccccc1)c1ccccc1OC(F)(F)F [Example 57B, N-((3S,4R)-3-phenyl-1-(quinoxalin-6-ylcarbonyl)piperidin-4-yl)-2-(trifluoromethoxy) benzamide] | 54 |  |  |
